Experiments:
PD-1/PD-L1 complex = target: T1, PD-1/PD-L1 complex (Homo sapiens, UniProt Q9NZQ7); test: HTRF (homogeneous time-resolved fluorescence) PD-1/PD-L1 binding assay (Cis-Bio); details: for HTRF: Percentage of the Dissociated PD-1/PD-L1 Complex, 0.5 µM Ligand Conc. / HTRF: Percentage of the Dissociated PD-1/PD-L1 Complex, 5 µM Ligand Conc. / inhibition at 0.5 µM / inhibition at 5 µM: 5 nM hPD-L1, 50 nM hPD-1; for HTRF: Percentage of the Dissociated PD-1/PD-L1 Complex, 0.5 µM Ligand Conc. / inhibition at 0.5 µM: 0.5 µM ligand; for inhibition at 0.5 µM: read-out: HTRF: Percentage of the Dissociated PD-1/PD-L1 Complex, 0.5 µM Ligand Conc.; for HTRF: Percentage of the Dissociated PD-1/PD-L1 Complex, 5 µM Ligand Conc. / inhibition at 5 µM: 5 µM ligand; for inhibition at 5 µM: read-out: HTRF: Percentage of the Dissociated PD-1/PD-L1 Complex, 5 µM Ligand Conc.
T1 construct: purchased Cis-Bio
T1 sequence (Q9NZQ7 19-238 limits assumed, one chain of several): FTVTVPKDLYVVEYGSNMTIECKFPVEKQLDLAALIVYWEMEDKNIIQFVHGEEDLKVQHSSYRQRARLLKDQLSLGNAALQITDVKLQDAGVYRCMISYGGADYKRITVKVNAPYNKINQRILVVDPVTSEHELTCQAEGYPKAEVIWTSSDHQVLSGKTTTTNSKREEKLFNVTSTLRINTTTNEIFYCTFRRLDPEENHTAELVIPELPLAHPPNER
Description: To validate the activity toward PD-L1 of our compounds, we carried out an HTRF (homogeneous time-resolved fluorescence) experiment at two concentrations of the ligand (5 µM and 0.5 µM) (Table 1).
HTRF was carried out using a certified Cis-Bio assay according to the manufacturer’s guidelines. The experiments were carried out at 5 nM of h-L1 and 50 nM of hPD-1 in the final formulation at the 20 µL final volume in the well. To determine the half maximal inhibitory concentrations (IC50) of the tested compounds, the measurements were carried out on two individual dilution series unless stated otherwise. After mixing all the components according to the Cis-Bio protocol, the plate was left for 2 h incubation at room temperature followed by the TR-FRET measurement on a Tecan Spark 20M. […] The collected data was background-subtracted from the negative control, normalized on the positive control, averaged, and fitted with the normalized Hill’s equation to determine the IC50 value using Mathematica 12 (Princeton, NJ, USA).

[1] = test system: PD-1/PD-L1 blockade, Jurkat effector cells / CHO/TCRAct/PD-L1 cells; test: Immune checkpoint blockade (ICB) assay (Promega): Jurkat ECs co-cultured with CHO/TCRAct/PD-L1 cells, NFAT luciferase readout; type: cell-based, human; details: for Promega Assay (active / not active): cell-based PD-1/PD-L1 blockade bioassay
Description: In order to explore the bioactivity of the synthesized compounds, a well-recognized immune checkpoint blockade (ICB) assay was performed. In the assay, artificial T cells, the Jurkat effector cells (Jurkat ECs), i.e., the Jurkat T cells overexpressing PD-1 and luciferase-coding gene under the control of the TCR-inducible NFAT response element, are contacted with artificial antigen-presenting CHO/TCRAct/PD-L1 cells, as illustrated in [31]. The latter is the CHO cells equipped with the TCR activator molecule, which delivers activation of Jurkat ECs, and also the PD-L1 protein, which provides a negative signal towards the activation of Jurkat ECs. Upon the blockade of the PD-1/PD-L1 interaction, activation of Jurkat ECs is increased, as we have shown before for several classes of therapeutic antibodies and small molecules.
The human PD-L1-expressing CHO-K1 cells overexpressing TCR activator (CHO/TCRAct/PD-L1) cells and Jurkat ECs T cells overexpressing PD-1 and carrying a luciferase reporter gene under the control of the Nuclear Factor of Activated T cells Response Element (NFAT-RE) were obtained from Promega and cultured in an RPMI-1640 medium (Biowest, Nuaillé, France) supplemented with 10% fetal bovine serum (FBS, Biowest, Nuaillé, France) and […] L-glutamine (Biowest, Nuaillé, France). G418 (250 µg/mL, InvivoGen, San Diego, CA, USA) and Hygromycin B Gold (50 µg/mL, InvivoGen, San Diego, CA, USA) were also added to the culture medium as selection antibiotics. CAKI 2, LNCap, PC-3, and MDA-MB-231 cells were purchased from the European Collection of Authenticated Cell Cultures (ECACC) and cultured according to the provided protocol.
For the analysis of biological activity of the analyzed compounds, an immune checkpoint blockade (ICB) assay was performed. For this, the culture of Jurkat effector cells (Jurkat-ECs) and […] was carried out. The assay was performed according to the protocol described in our previous works. All the experiments were performed three times as independent experiments.
Figure 2 Bioactivity of the indicated compounds. (A,B) The activity was monitored with a cell-based immune checkpoint blockade (ICB) assay. Jurkat ECs were contacted with pre-seeded CHO/TCRAct/PD-L1 cells in the presence of the indicated concentrations of the compounds (A) or durvalumab (B) as a positive control. The cells were co-cultured for 6 h and the luminescence signal was measured following the addition of the Bio-Glo substrate. The graphs show fold induction calculated versus either DMSO-treated (for small molecules) or untreated (for durvalumab) control (ctrl) cells. The results are mean ± SD from three independent experiments. […] (C) Analysis of the expression of PD-L1 in four human cancer cell lines compared to PD-L1-overexpressing CHO/TCRAct/PD-L1 cells. (D) Analysis of the expression of PD-L1 in MDA-MB-231 cells treated with either 4 or 5 compounds for 6 or 24 h.

PD-L1 protein = target: T2, PD-L1 protein (Homo sapiens, UniProt Q9NZQ7); test: 1H NMR binding analysis, PD-L1 protein titrated with ligand; details: 1H NMR titration; compound 6 at protein–ligand ratio 1:10
T2 construct: PD-L1 gene (amino acids 18–239); made in house; host or cells: E. coli BL21
T2 sequence (Q9NZQ7 18-239): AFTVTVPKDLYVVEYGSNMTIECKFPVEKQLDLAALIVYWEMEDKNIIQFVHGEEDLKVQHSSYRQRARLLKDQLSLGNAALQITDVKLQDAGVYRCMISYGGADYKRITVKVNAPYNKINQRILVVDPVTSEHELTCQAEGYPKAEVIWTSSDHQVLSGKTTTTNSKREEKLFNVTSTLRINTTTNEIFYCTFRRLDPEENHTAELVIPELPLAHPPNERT
Description: Apart from the HTRF assay, we performed the NMR [33, 34] binding analysis by recording the ^1H spectrum of the PD-L1 protein titrated with compound 4 (Figure 1).
The E. coli strain BL21 was transformed with a pET-21b plasmid carrying the PD-L1 gene (amino acids 18–239). The bacteria were cultured in LB at 37 °C until OD600nm of 0, 6 when the recombinant protein production was induced with 1 mM IPTG. The protein production continued overnight. The inclusion bodies were collected by centrifugation, washed twice with 50 mM Tris HCl, pH 8.0, containing 200 mM NaCl, 10 mM EDTA, 10 mM 2-mercaptoethanol, and 0.5% Triton X-100, followed by a single wash with the same buffer but with no Triton X-100. The washed inclusion bodies were resuspended overnight in 50 mM Tris HCl, pH 8.0, 6 M GuHCl, 200 mM NaCl, and 10 mM 2-mercaptoethanol and clarified with centrifugation. Refolding of PD-L1 was performed by dropwise dilution into 0.1 M Tris HCl, pH 8.0, containing 1 M L-arginine hydrochloride, 0.25 mM oxidized glutathione, and 0.25 mM reduced glutathione. The refolded protein was dialyzed three times against 10 mM Tris HCl, pH 8.0, containing 20 mM NaCl and purified by size exclusion chromatography using Superdex 75 and a dialysis buffer. The quality of the refolded protein was evaluated by SDS-PAGE and NMR.
NMR spectra were recorded in PBS, pH 7.4, containing 10% (v/v) of D2O added to the samples to provide the lock signal. Water suppression was carried out using the WATERGATE sequence. All the spectra were recorded at 300 K using a Bruker Avance 600 MHz spectrometer with the Cryo-Platform. The NMR spectrum was recorded at three different ligand/protein ratios from 0 to 10. The samples were prepared by adding small amounts of a 50 mM ligand stock solution in DMSO to the protein solution (0.20 mL) of the PD-L1 fragment at a concentration of 0.14 mM. The acquisition parameters for each spectrum were as follows: size of FID32768, number of scans: 32. The spectra were visualized using TopSpin 4.0.2. (Bruker, Billerica, MA, USA)

Compound | HTRF: Percentage of the Dissociated PD-1/PD-L1 Complex, 0.5 µM Ligand Conc. (PD-1/PD-L1 complex) | HTRF: Percentage of the Dissociated PD-1/PD-L1 Complex, 5 µM Ligand Conc. (PD-1/PD-L1 complex) | Promega Assay (active / not active) [1] | inhibition at 0.5 µM (PD-1/PD-L1 complex) | inhibition at 5 µM (PD-1/PD-L1 complex) | Activation of Jurkat ECs in the ICB assay ([1]; 6 h co-culture, fold induction vs control) | Protein precipitation during NMR titration (PD-L1 protein) | IC50 (PD-1/PD-L1 complex; six ligand concentrations, two dilution series)
N1-(2-(2,6-dioxopiperidin-3-yl)-1,3-dioxoisoindolin-4-yl)-N5-((6-((2-methyl-[1,1′-biphenyl]-3-yl)methoxy)-3-((1-phenylethyl)amino)imidazo [1,2-a]pyridin-2-yl)methyl)glutaramide [compound 13] | 30.4% | 31.1% | Not active |  |  |  |  | 
COc1cc(-c2cccc(-c3ccc4c(c3)OCCO4)c2Cl)ccc1COC(=O)CCCC(=O)N1CCN(c2cccc3c2C(=O)N(C2CCC(=O)NC2=O)C3=O)CC1 (centres unmarked) [compound 11] |  |  | Not active | 26.3% | 40% |  |  | 
Cc1c(COc2cc(OCc3cccc(C#N)c3)c(CN3C[C@H](O)C[C@@H]3C(=O)NCCCNc3cccc4c3C(=O)N(C3CCC(=O)NC3=O)C4=O)cc2Cl)cccc1-c1ccc2c(c1)OCCO2 (stereo partly drawn) [compound 2, (2R,4R)-1-(5-chloro-2-((3-cyanobenzyl)oxy)-4-((3-(2,3-dihydrobenzo[b][1,4]dioxin-6-yl)-2-methylbenzyl)oxy)benzyl)-N-(3-((2-(2,6-dioxopiperidin-3-yl)-1,3-dioxoisoindolin-4yl)amino)propyl)-4-hydroxypyrrolidine-2-carboxamide] |  |  | Not active | 3.9% | 71.7% |  |  | 
Cc1c(COc2ccc3nc(CNC(=O)CCCC(=O)Nc4cccc5c4C(=O)N(C4CCC(=O)NC4=O)C5=O)c(NCc4cccc(C#N)c4)n3c2)cccc1-c1ccc(F)cc1 (centres unmarked) [compound 12, N1-((3-((3-cyanobenzyl)amino)-6-((4′-fluoro-2-methyl-[1,1′-biphenyl]-3-yl)methoxy)imidazo [1,2-a]pyridin-2-yl)methyl)-N5-(2-(2,6-dioxopiperidin-3-yl)-1,3-dioxoisoindolin-4-yl)glutaramide] |  |  | Not active | 40.9% | 76.3% |  |  | 
durvalumab |  |  |  |  |  | increase the activation of Jurkat ECs |  | 
Cc1c(COc2cc(OCc3cccc(C#N)c3)c(CN3C[C@H](O)C[C@@H]3C(=O)O)cc2Cl)cccc1-c1ccc2c(c1)OCCO2 [BMS-1166, reference compound] | 100% | 100% |  |  |  |  | not observed | 
Cc1c(COc2cc(OCc3cccc(C#N)c3)c(CNCC3CCN(CC(=O)Nc4cccc5c4C(=O)N(C4CCC(=O)NC4=O)C5=O)CC3)cc2Cl)cccc1-c1ccc2c(c1)OCCO2 (centres unmarked) [compound 3, 2-(4-(((5-chloro-2-((3-cyanobenzyl)oxy)-4-((3-(2,3-dihydrobenzo[b][1,4]dioxin-6-yl)-2-methylbenzyl)oxy)benzyl)amino)methyl)piperidin-1-yl)-N-(2-(2,6-dioxopiperidin-3-yl)-1,3-dioxoisoindolin-4-yl)acetamide] |  |  | Not active | 77.8% | 97.1% |  |  | 60 ± 2 nM
COc1cc(-c2cccc(-c3ccc4c(c3)OCCO4)c2Cl)ccc1COC(=O)CCC(=O)N1CCN(c2cccc3c2C(=O)N(C2CCC(=O)NC2=O)C3=O)CC1 (centres unmarked) [compound 10, (3′-(benzo-1,4-dioxan-6-yl)-2′-chloro-3-methoxy-[1,1′-biphenyl]-4-yl)methyl 4-(4-(2-(2,6-dioxopiperidin-3-yl)-1,3-dioxoisoindolin-4-yl)piperazin-1-yl)-4-oxobutanoate] |  |  | Not active | 29.4% | 60.6% |  |  | 
COc1nc(OCc2cccc(-c3ccccc3)c2C)ccc1C(NCCCNc1cccc2c1C(=O)N(C1CCC(=O)NC1=O)C2=O)c1nnnn1C(C)(C)C (centres unmarked) [compound 7, 4-((3-(((1-(tert-butyl)-1H-tetrazol-5-yl)(2-methoxy-6-((2-methyl-[1,1′-biphenyl]-3-yl)methoxy)pyridin-3-yl)methyl)amino)propyl)amino)-2-(2,6-dioxopiperidin-3-yl)isoindoline-1,3-dione] |  |  | Not active | 0% | 35.2% |  |  | 
Cc1c(COc2cc(OCc3cccc(C#N)c3)c(CN3C[C@H](O)C[C@@H]3C(=O)NCC3CCN(CC(=O)Nc4cccc5c4C(=O)N(C4CCC(=O)NC4=O)C5=O)CC3)cc2Cl)cccc1-c1ccc2c(c1)OCCO2 (stereo partly drawn) [compound 1, (2R,4R)-1-(5-chloro-2-((3-cyanobenzyl)oxy)-4-((3-(2,3-dihydrobenzo[b][1,4]dioxin-6-yl)-2-methylbenzyl)oxy)benzyl)-N-((1-(2-((2-(2,6-dioxopiperidin-3-yl)-1,3-dioxoisoindolin-4-yl)amino)-2-oxoethyl)piperidin-4-yl)methyl)-4-hydroxypyrrolidine-2-carboxamide] |  |  | Not active | 23.7% | 68.3% |  |  | 

From publication PMC9181982, “Biphenyl Ether Analogs Containing Pomalidomide as Small-Molecule Inhibitors of the Programmed Cell Death-1/Programmed Cell Death-Ligand 1 Interaction” (Molecules, 2022)
